Experimental data: publication PMC3914891, “Pentacyclic Nitrofurans with In Vivo Efficacy and Activity against Nonreplicating Mycobacterium tuberculosis” (PLoS ONE, 2014)
In brackets after ≈: the same amount, converted by molar mass.

Columns and labels:
[1] = tested on: M. abscessus (ATCC 19977); assay: MIC, non-tuberculosis mycobacteria: M. abscessus; format: cell-based; conditions: Mycobacteroides abscessus, ATCC19977, 72 h; broth dilution, visual inspection, 3 days; range of at least two independent experiments; read-out: Minimum Inhibitory Concentration, M. abscessus
[2] = tested on: M. avium (ATCC 25291); assay: MIC, non-tuberculosis mycobacteria: M. avium; format: cell-based; conditions: Mycobacterium avium, ATCC25291, 168 h; broth dilution, visual inspection, 7 days; read-out: Minimum Inhibitory Concentration, M. avium
[3] = tested on: M. kansasii (ATCC 12478); assay: MIC, non-tuberculosis mycobacteria: M. kansasii; format: cell-based; conditions: Mycobacterium kansasii, ATCC12478, 168 h; broth dilution, visual inspection, 7 days; read-out: Minimum Inhibitory Concentration, M. kansasii
[4] = tested on: M. fortuitum (ATCC 6841); assay: MIC, non-tuberculosis mycobacteria: M. fortuitum; format: cell-based; conditions: Mycolicibacterium fortuitum, ATCC6841, 72 h; broth dilution, visual inspection, 3 days; read-out: Minimum Inhibitory Concentration, M. fortuitum
[5] = tested on: M. ulcerans (ATCC 35840); assay: MIC by agar proportion method: M. ulcerans; format: cell-based; conditions: Mycobacterium ulcerans, ATCC35840, 672 h, read-out: Minimum Inhibitory Concentration, M. ulcerans
[6] = tested on: M. tuberculosis strain H37Rv; assay: Checkerboard synergy assay; format: cell-based, Mycobacterium tuberculosis; conditions: for MIC: Mycobacterium tuberculosis, H37RV, 168 h, read-out: MIC Alone
[7] = tested on: hypoxic M. tuberculosis strain H37Rv; assay: NRP bacteria under hypoxia (rapid anaerobic dormancy model); format: cell-based, Mycobacterium tuberculosis
[8] = tested on: M. tuberculosis; assay: MIC determination, microbroth dilution, M. tuberculosis; format: cell-based, Mycobacterium tuberculosis; conditions: Mycobacterium tuberculosis, 168 h; read-out: M. tb. MIC
[9] = tested on: Staphylococcus aureus (ATCC 29213); assay: MIC, spectrum of activity: S.a.; format: cell-based; conditions: ATCC29213, read-out: Minimum Inhibitory Concentration, S.a
[10] = tested on: Staphylococcus aureus (NRS70); assay: MIC, spectrum of activity: MRSA; format: cell-based; conditions: read-out: Minimum Inhibitory Concentration, MRSA
[11] = tested on: Bacillus subtilis (ATCC 23857); assay: MIC, spectrum of activity: B.s.; format: cell-based; conditions: ATCC23857, read-out: Minimum Inhibitory Concentration, B.s.
[12] = tested on: Streptococcus pyogenes (ATCC 700294); assay: MIC, spectrum of activity: S.py; format: cell-based; conditions: ATCC700294, read-out: Minimum Inhibitory Concentration, S. Py.
[13] = tested on: Streptococcus pneumoniae (R6); assay: MIC, spectrum of activity: S.pn; format: cell-based; conditions: read-out: Minimum Inhibitory Concentration, S. Pn.
[14] = tested on: Enterococcus faecalis (ATCC 33186); assay: MIC, spectrum of activity: E.f.; format: cell-based; conditions: ATCC33186, read-out: Minimum Inhibitory Concentration, E.f.
[15] = tested on: Bacillus anthracis sterne 34F2; assay: microbe, parasite or virus in culture; format: cell-based; conditions: STERNE34F2, read-out: Minimum Inhibitory Concentration, B.a.
[16] = tested on: Burkholderia cepacia (ATCC 25416); assay: MIC, spectrum of activity: B.c.; format: cell-based; conditions: ATCC25416, read-out: Minimum Inhibitory Concentration, B.c.
[17] = tested on: Stenotrophomonas maltophilia (ATCC 13637); assay: MIC, spectrum of activity: S.m.; format: cell-based; conditions: ATCC13637, read-out: Minimum Inhibitory Concentration, S.m.
[18] = tested on: Escherichia coli (ATCC 700926); assay: MIC, spectrum of activity: E.c.; format: cell-based; conditions: ATCC700926, read-out: Minimum Inhibitory Concentration, E.c.
[19] = tested on: E. coli K12 ∆tolC; format: cell-based; conditions: E. coli K12 ∆tolC (efflux pump deficient)
[20] = male, Sprague-Dawley, rat, in vivo
[21] = rats; IV 10 mg/kg and oral 100 mg/kg
[22] = in vivo; conditions: male, Sprague-Dawley, rat
[23] = physchem; conditions: pH 7.4, aqueous buffer
[24] = in vitro; conditions: mouse, microsomes
[25] = in vitro; conditions: mouse, plasma
[26] = In vitro cytotoxicity against Vero cells; conditions: African green monkey, Vero cells (kidney epithelial cells, ATCC CCL-81)
[27] = tested on: Vero cells; assay: In vitro cytotoxicity against Vero cells

Compound	FICI with 9a [6]	MIC in presence of 9a [6] [µg/mL]	Type of Interaction [6]	MIC [8] [µg/mL]	MIC [9] [µg/mL]	MIC [10] [µg/mL]	MIC [11] [µg/mL]	MIC [12] [µg/mL]	MIC [13] [µg/mL]	MIC [14] [µg/mL]	MIC [15] [µg/mL]	MIC [16] [µg/mL]	MIC [17] [µg/mL]	MIC [18] [µg/mL]	Minimum Inhibitory Concentration, E.c. ΔtolC [19] [µg/mL]	solubility [23] [µg/mL]	half-life [24] [h]	fraction unbound [25]	IC50 [26] [µg/mL]	Selective Index (Cytox/MIC) [27]	other results
CO[C@H]1/C=C/O[C@@]2(C)Oc3c(C)c(O)c4c(O)c(c(/C=N/N5CCN(C)CC5)c(O)c4c3C2=O)NC(=O)/C(C)=C\C=C\[C@H](C)[C@H](O)[C@@H](C)[C@@H](O)[C@@H](C)[C@H](OC(C)=O)[C@@H]1C [Rifampin]	0.38	0.003	Synergy (key: Synergy: synergy (FICI ≤0.5); Indifference: indifference (FICI >0.5–4.0); Antagonism: antagonism (FICI >4.0))																		MIC [1]: 50 µg/mL (≈ 60.8 µM); MIC [2]: 6.3 µg/mL (≈ 7.66 µM); MIC [3]: 0.39 µg/mL (≈ 0.474 µM); MIC [4]: 1.56 µg/mL (≈ 1.9 µM); MIC [5]: 0.1 to 0.4 µg/mL (≈ 0.122 to 0.486 µM); fold decrease of MIC in the presence of 9a [6]: ~10 fold; MIC [6]: 0.02 to 0.05 µg/mL; % Growth vs. Control [7]: <0.1%
CC(=O)NC[C@H]1CN(c2ccc(N3CCOCC3)c(F)c2)C(=O)O1 [Linezolid]	1.00	0.8	Indifference (key: Synergy: synergy (FICI ≤0.5); Indifference: indifference (FICI >0.5–4.0); Antagonism: antagonism (FICI >4.0))																		MIC [6]: 1.6 µg/mL
O=[N+]([O-])c1ccc(C2=NOC(c3ccc(N4CCC(Oc5ccc(OC(F)(F)F)cc5)CC4)c(F)c3)C2)o1 (stereo not drawn) [Compound 9c, 5-(3-Fluoro-4-(4-(4-(trifluoromethoxy)phenoxy)piperidin-1-yl)phenyl)-3-(5-nitrofuran-2-yl)-4,5-dihydroisoxazole]				0.001 (≈ 0.00187 µM)	> 200	> 200	200 (≈ 374 µM)	200 (≈ 374 µM)	> 200	> 200	12.5 (≈ 23.3 µM)	> 200	> 200	> 200	>200	1.9 (≈ 3.55 µM)	7.04	0.024	21.4 (≈ 40 µM)	21400	fe (fraction excreted unchanged in urine) ([20]; iv, 10 mg/kg): 0.02 (0.00) %; Cmin,24 h ([20]; po, 100 mg/kg): 0.02 (0.02) mg/L; Toxicity by intravenous and oral dosing [21]: Central nervous system toxicity (seizures); Vd ([22]; iv, 10 mg/kg): 1.69 L/kg; clearance ([22]; iv, 10 mg/kg): 6.83 mL/min/kg; half-life ([22]; iv, 10 mg/kg): 5.6 h; AUC(0-inf) ([22]; po, 100 mg/kg): 1610 ng·h/mL; Cmax ([22]; po, 100 mg/kg): 150 ng/mL; bioavailability ([22]; po, 100 mg/kg): 0.83%
O=[N+]([O-])c1ccc(C2=NOC(c3ccc(N4CCC(Oc5ccc(F)cc5)CC4)nc3)C2)o1 (stereo not drawn) [Compound 9e, 5-(6-(4-(4-Fluorophenoxy)piperidin-1-yl)pyridin-3-yl)-3-(5-nitrofuran-2-yl)-4,5-dihydroisoxazole]				0.002 (≈ 0.00442 µM)	> 200	50 (≈ 111 µM)	50 (≈ 111 µM)	> 200	> 200	50 (≈ 111 µM)	> 200	50 (≈ 111 µM)	6.3 (≈ 13.9 µM)	> 200	>200	2.2 (≈ 4.86 µM)	1.93	0.002	7.5 (≈ 16.6 µM)	3750	
O=[N+]([O-])c1ccc(C2=NOC(c3ccc(N4CCC(Oc5ccc(F)cc5)CC4)c(F)c3)C2)o1 (stereo not drawn) [Compound 9f, 5-(3-Fluoro-4-(4-(4-fluorophenoxy)piperidin-1-yl)phenyl)-3-(5-nitrofuran-2-yl)-4,5-dihydroisoxazole]				0.012 (≈ 0.0256 µM)	3.13 (≈ 6.67 µM)	12.5 (≈ 26.6 µM)	25 (≈ 53.3 µM)	50 (≈ 107 µM)	25 (≈ 53.3 µM)	6.3 (≈ 13.4 µM)	> 200	12.5 (≈ 26.6 µM)	> 200	> 200	12.5	0.8 (≈ 1.7 µM)	1.74	0.002	8 (≈ 17 µM)	667	
